Measured values published in US10238635B2, “N-carbamoylated urethane for treating a neuroinflammatory disease” (Kyungpook National University Industry—Academic Cooperation …, priority 2016, dated 2019).
Entries after “also recorded” stand apart in the source; their conditions may differ.

Columns and labels:
BV-2 microglial cells [1] = experiment: LPS-induced NO production in BV-2 microglial cells (Griess, nitrite); format: cell-based, murine; conditions: LPS 100 ng/ml; for inhibition at 10 µM: Mus musculus, BV-2 microglial cells, 10 μM compound, LPS-increased NO production = 100%
Method: (§1) BV-2 cells, a murine microglial cell line, were cultured in Dulbecco's modified Eagle's medium (DMEM) containing 5% heat-inactivated FBS and 50 μg/ml gentamicin at 37° C. Rat microglial HAPI cells and mouse primary astrocytes were cultured in DMEM (10% FBS, 10 U/ml penicillin, 10 μg/ml streptomycin) at 37° C. All animals and experimental procedures were approved by the Institutional Review Board of Kyungpook National University School of Pharmacy and were carried out in accordance with the NIH Guide for the Care and Use of Laboratory Animals. All animals were maintained under temperature- and humidity-controlled conditions.
(§2) The production of nitric oxide (NO) was estimated by measuring the amount of nitrite, which is a NO metabolite. The BV-2 cells (40,000 cells/well in 96-well plates) were treated with 100 ng/ml of LPS in the presence or absence of the compounds from the library. At the end of a 24 hour incubation period, 50 μl of the cell culture media was mixed with an equal volume of a Griess reagent in each well. The light absorbance was measured at 540 nm, while a standard curve was generated using sodium nitrite.
(§3) Specifically, the BV-2 cells were cultured in 96-well plates and stimulated with LPS at a concentration of 100 ng/ml. The BV-2 cells stimulated with LPS were treated with 3,500 low molecular weight substances (FIG. 1).
While an increased NO production by LPS is designated as 100%, a suppressed amount of NO production by each derivative of Compound 1 is presented by its respective percentage.

BV-2 cells = experiment: Cell viability, MTT assay; format: cell-based, murine
Method: Cell viability was assessed using MTT assay. After treatment with LPS and the compounds, the culture solution was aspirated and removed. MTT (0.5 mg/ml in PBS) was added to the cells and incubated at 37° C. for 4 hours. The resulting formazan was dissolved in DMSO. The absorbance was determined at 570 nm using a microplate reader.
as §3

[2] = system: HAPI rat microglial cells; experiment: LPS-induced NO release in HAPI cells; format: cell-based; conditions: various concentrations, 24 hours
Method: as §1
(§4) The present inventors confirmed the anti-neuroinflammatory effect of Compound 1, which was identified in Example 1, in the HAPI rat microglial cells and the RAW264.7 macrophage cells. The cells were cultured in 96-well plates, followed by treatment with various concentrations of Compound 1 with LPS, respectively. After 24 hours of such a treatment, NO release was examined.

[3] = system: RAW264.7 macrophage cells; experiment: LPS-induced NO release in RAW264.7 cells; format: cell-based; conditions: various concentrations, 24 hours
Method: as §4

BV-2 microglial cells [4] = experiment: RT-PCR of LPS-induced pro-inflammatory gene expression in BV-2 cells; format: cell-based, murine; conditions: pre-treatment
Method: (§5) Total RNA was extracted from microglial cells or brain tissues using TRIZOL reagent (Invitrogen, Carlsbad, Calif., USA). Reverse transcription (RT) was performed using Superscript II reverse transcriptase (Invitrogen) and Oligo (dT) primers. Traditional polymerase chain reaction (PCR) amplification was performed using specific primer sets at annealing temperature 55-60° C. for 20-30 cycles. PCR was performed using C1000 Touch Thermal Cycler. For the PCR product analysis, 10 μl of each PCR reaction was electrophoresed on 1% agarose gel and detected under ultraviolet light.
(§6) Real-time RT-PCR was performed using Perfect Real-Time One Step SYBR Primer Script RT-PCR Kit (Takara Bio, Otsu, Shiga, Japan).
The primer sequences were designed based on published cDNA sequences (See Table 1).
Next, the effect of Compound 1 on the LPS-induced expression of pro-inflammatory mediators was examined in the BV-2 microglial cells.

astrocytes = experiment: NO, TNF-α production and Ym-1 expression in astrocytes; format: cell-based, mouse
Method: as §1
The mouse primary microglial cells were cultured under mild conditions according to known methods. In brief, the forebrains of 3-5 day-old C57BL/6 mice were harvested and mechanically pulverized using a nylon mesh. The cells were seeded onto a poly-L-lysine-coated flasks and then cultured. After in vitro culture of 10-14 days, the microglial cells were isolated from the mixed glial cultures by shaking for 6 hours at 200 rpm. Astrocytes remained attached to the bottom of the culture flask were used for the following experiments. 3. High Throughput Screening
as §2, with “At the end of a 24 hour incubation period, 50 μl of the cell culture media was mixed with an equal volume of a Griess reagent in each well.” left out
The BV-2 cells or astrocytes were treated with LPS and Compound 1, followed by culturing for 24 hours. The TNF-α levels in the culture media were measured using a rat monoclonal anti-mouse TNF-α antibody as a primary antibody and a goat anti-mouse TNF-α antibody as a secondary antibody.
Total RNA was extracted from microglial cells or brain tissues using TRIZOL reagent (Invitrogen, Carlsbad, Calif., USA). […] For the PCR product analysis, 10 μl of each PCR reaction was electrophoresed on 1% agarose gel and detected under ultraviolet light. […]

[5] = Brain distribution and half-life after intraperitoneal administration; format: in vivo; conditions: 2 mg/kg, previous study by the inventors
[6] = system: LPS-induced mouse neuroinflammation model; experiment: LPS-induced mouse neuroinflammation model (Iba-1 immunostaining, real-time RT-PCR of brain); format: in vivo, C57BL/6 mice; conditions: 72 h after LPS
Method: as §5, §6
LPS was intraperitoneally administered according to a conventionally known method for producing neuroinflammatory mouse model. All experiments were performed on C57BL/6 mice aged 9-11 weeks, and the animals were supplied from Koatech. In each experiment, the animals were divided into four groups (Group 1, vehicle-treated group; Group 2, Compound 1-treated group; Group 3, LPS & vehicle-treated group; Group 4, LPS & Compound 1-treated group). Compound 1 (2 mg/kg) was dissolved in saline containing 5% DMSO and 40% polyethylene glycol and administered intraperitoneally daily for 4 days. LPS (5 mg/kg) induced a neuroinflammatory animal model by intraperitoneally administering its single dose on the second day.
For histological analysis, 72 hours after the administration of LPS, the animals were anesthetized and perfused transcardially first with saline and then with 4% paraformaldehyde. The activity of microglial cells was evaluated using Iba-1 staining. At least three animals were included in each experimental group. […]
The mice were then sacrificed, and the Iba-1 levels were analyzed as molecular markers of microglia activation (FIG. 6B).
The Iba-1-stained cells whose intensity values were above an arbitrarily defined threshold were counted from each of three brain regions, including the cortex, hippocampus, and substantia nigra.

[7] = 2 mg/kg i.p., LPS 5 mg/kg, real-time RT-PCR

CCC(OC(=O)N(Cc1ccccc1)C(=O)Nc1ccc(OC)c(OC)c1)c1cc(-c2ccc(OC(C)(C)C(=O)O)cc2)no1 (centres unmarked) [3,4-dimethoxy, 2-(4-(5-(1-((benzyl((3,4-dimethoxymethylphenyl)carbamoyl)carbamoyl)oxy)propyl)isoxazol-3-yl)phenoxy)-2-methylpropanoic acid]
inhibition at 10 µM (BV-2 microglial cells [1]): 60.7%

CCC(OC(=O)N(Cc1ccccc1)C(=O)Nc1ccc2c(c1)OCO2)c1cc(-c2ccc(OC(C)(C)C(=O)O)cc2)no1 (centres unmarked) [3,4-methylenedioxy]
inhibition at 10 µM (BV-2 microglial cells [1]): 74.6%

CCC(OC(=O)N(Cc1ccccc1)C(=O)Nc1cc(OC)cc(OC)c1)c1cc(-c2ccc(OC(C)(C)C(=O)O)cc2)no1 (centres unmarked) [3,5-dimethoxy]
inhibition at 10 µM (BV-2 microglial cells [1]): 56.7%

CCC(OC(=O)N(Cc1ccccc1)C(=O)Nc1ccc(C(F)(F)F)cc1)c1cc(-c2ccc(OC(C)(C)C(=O)O)cc2)no1 (centres unmarked) [4-trifluoromethyl, 2-(4-(5-(1-((benzyl((4-trifluoromethylphenyl)carbamoyl)carbamoyl)oxy)propyl)isoxazol-3-yl)phenoxy)-2-methylpropanoic acid]
inhibition at 10 µM (BV-2 microglial cells [1]): 52.7%

CCC(OC(=O)N(Cc1ccccc1)C(=O)Nc1ccccc1)c1cc(-c2ccc(OC(C)(C)C(=O)O)cc2)no1 (centres unmarked) [Compound 1, 2-(4-(5-(1-((benzyl(phenylcarbamoyl)carbamoyl)oxy)propyl)isoxazol-3-yl)phenoxy)-2-methylpropanoic acid]
inhibition of NO production in microglial cells (high-throughput screening) (BV-2 microglial cells [1]; BV-2 cells): effectively inhibiting NO production | inhibition at 10 µM (BV-2 microglial cells [1]): 73.4% | cytotoxicity (BV-2 cells): low in cytotoxicity | LPS-induced NO release [2]: inhibits the LPS-induced NO release in the microglial and macrophage cells in a dose-dependent manner | LPS-induced NO release [3]: inhibits the LPS-induced NO release in the microglial and macrophage cells in a dose-dependent manner | expression of IL-1β gene (BV-2 microglial cells [4]): significantly reduced | expression of TNF-α gene (BV-2 microglial cells [4]): significantly reduced | expression of iNOS gene (BV-2 microglial cells [4]): significantly reduced | IL-4-induced Ym-1 expression in astrocytes (astrocytes; IL-4): increasing | LPS-induced NO production in astrocytes (astrocytes; LPS): inhibited | LPS-induced TNF-α production in astrocytes (astrocytes; LPS): inhibited | brain distribution [5]: 0.19 µg/h/mL | half-life ([5]; brain, ip): 5.23 h | LPS-induced microglial activation (Iba-1 positive cells) ([6]; 2 mg/kg i.p. daily for 4 days, LPS 5 mg/kg i.p., cortex, hippocampus, substantia nigra): significantly reduced; also recorded: effectively blocked | expression level of IL-1β mRNA in brain [6, 7]: significantly diminished | expression level of TNF-α mRNA in brain [6, 7]: significantly diminished

CCC(OC(=O)N(Cc1ccccc1)C(=O)Nc1ccccc1OC)c1cc(-c2ccc(OC(C)(C)C(=O)O)cc2)no1 (centres unmarked) [Compound 2-methoxy, 2-(4-(5-(1-((benzyl((2-methoxyphenyl)carbamoyl)carbamoyl)oxy)propyl)isoxazol-3-yl)phenoxy)-2-methylpropanoic acid]
inhibition at 10 µM (BV-2 microglial cells [1]): 20.9%

CCC(OC(=O)N(Cc1ccccc1)C(=O)Nc1cccc(OC)c1)c1cc(-c2ccc(OC(C)(C)C(=O)O)cc2)no1 (centres unmarked) [Compound 3-methoxy, 2-(4-(5-(1-((benzyl((3-methoxyphenyl)carbamoyl)carbamoyl)oxy)propyl)isoxazol-3-yl)phenoxy)-2-methylpropanoic acid]
inhibition at 10 µM (BV-2 microglial cells [1]): 25.6%

CCC(OC(=O)N(Cc1ccccc1)C(=O)Nc1ccc(Cl)cc1)c1cc(-c2ccc(OC(C)(C)C(=O)O)cc2)no1 (centres unmarked) [Compound 4-chloro]
inhibition at 10 µM (BV-2 microglial cells [1]): 67.8%

CCC(OC(=O)N(Cc1ccccc1)C(=O)Nc1ccc(OC)cc1)c1cc(-c2ccc(OC(C)(C)C(=O)O)cc2)no1 (centres unmarked) [Compound 4-methoxy, 2-(4-(5-(1-((benzyl((4-methoxyphenyl)carbamoyl)carbamoyl)oxy)propyl)isoxazol-3-yl)phenoxy)-2-methylpropanoic acid]
inhibition at 10 µM (BV-2 microglial cells [1]): 46.7%

CCC(OC(=O)N(Cc1ccccc1)C(=O)Nc1ccc(C)cc1)c1cc(-c2ccc(OC(C)(C)C(=O)O)cc2)no1 (centres unmarked) [Compound 4-methyl, 2-(4-(5-(1-((benzyl((4-methylphenyl)carbamoyl)carbamoyl)oxy)propyl)isoxazol-3-yl)phenoxy)-2-methylpropanoic acid]
inhibition at 10 µM (BV-2 microglial cells [1]): 46.7%

CCCCc1ccc(NC(=O)N(Cc2ccccc2)C(=O)OC(CC)c2cc(-c3ccc(OC(C)(C)C(=O)O)cc3)no2)cc1 (centres unmarked) [Compound 4-n-butyl, 2-(4-(5-(1-((benzyl((4-n-butylmethylphenyl)carbamoyl)carbamoyl)oxy)propyl)isoxazol-3-yl)phenoxy)-2-methylpropanoic acid]
inhibition at 10 µM (BV-2 microglial cells [1]): 58.3%
